Values of other authors as cited in patent US8491930B2, “Pharmaceutical formulation containing ibuprofen and codeine” (Farmasierra Manufacturing, S.L., priority 2008, dated 2013).

COc1ccc2c3c1OC1C(O)C=C[C@H]4[C@@H](C2)N(C)CC[C@]314 (stereo partly shown) [Codeine phosphate, 7,8-didehydro-4,5-epoxy-3-methoxy-17-methyl-morphinan-6-ol]
Solubility in water: soluble in water
